Blank lines part the entries; values can stand above or below the compound they belong to.
Tests used:
RARγ = target: T1, RARγ (Homo sapiens, UniProt P13631); assay: [3H]-ATRA displacement assay, baculovirus expressed receptor; format: binding; parameters: made in house; host or cells: baculovirus expression system; conditions: Table 12; relative affinity, competition of 3H-ATRA binding, Cheng-Prussof equation
T1 sequence (P13631 1-454): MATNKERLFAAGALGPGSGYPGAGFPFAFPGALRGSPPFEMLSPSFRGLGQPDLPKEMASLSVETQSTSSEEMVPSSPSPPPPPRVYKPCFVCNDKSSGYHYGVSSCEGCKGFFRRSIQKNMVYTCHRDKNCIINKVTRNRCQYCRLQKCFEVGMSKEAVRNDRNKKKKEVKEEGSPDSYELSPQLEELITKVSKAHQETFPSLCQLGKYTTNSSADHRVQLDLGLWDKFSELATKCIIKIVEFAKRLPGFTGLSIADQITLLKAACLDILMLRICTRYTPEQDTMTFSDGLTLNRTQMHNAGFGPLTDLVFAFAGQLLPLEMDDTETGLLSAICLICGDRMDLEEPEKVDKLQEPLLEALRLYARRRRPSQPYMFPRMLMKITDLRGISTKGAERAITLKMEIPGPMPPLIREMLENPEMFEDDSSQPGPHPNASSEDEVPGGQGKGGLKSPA

RAR-γ-VP-16 = assay: Example 12: assay for retinoid negative hormones, CV-1 cells; format: cell-based; conditions: 10^−9 to 10^−6 M, 18 hours, no agonist
[1] = system: 1,25-dihydroxyvitamin D3-dependent gene expression; assay: Example 14: 1,25-dihydroxyvitamin D3 transactivation, MTV-VDRE-Luc in HeLa cells; format: cell-based; conditions: 1,25-dihydroxyvitamin D3 alone
Method: Hela cells were transfected using the cationic liposome-mediated transfection procedure described by Feigner et al. in Proc. Natl. Acad. Sci. USA 84:7413 (1987). 5×10^4 cells were plated in 12-well multiwell plates and grown in DMEM supplemented with 10% FBS. Cells were cotransfected in serum-free medium using 2 μg/well of LIPOFECTAMINE reagent (Life Technologies, Inc.) with 0.7 μg of the reporter plasmid MTV-VDRE-Luc, containing two copies of the 1,25-dihydroxyvitamin D3 response element [NT] ID NO:4) from the mouse osteopontin gene (Ferrara et al. J. Biol. Chem. 269:2971 (1994)) ligated into the reporter plasmid ΔMTV-Luc (Heyman et al. in Cell 68:397 (1992)), and 0.3 μg of the plasmid pGEM3Z (Pharmacia, Inc.) as carrier DNA to bring the final concentration of DNA to 1.0 μg per well. After six hours of transfection, cells were fed with growth medium containing charcoal extracted FBS at a final concentration of 10%. […] Luciferase activity was measured as described above. This experimental system allowed a convenient method of monitoring and quantitating 1,25-dihydroxyvitamin D3-dependent gene expression.

[2] = system: TPA-induced AP-1 activity; assay: Example 15: anti-AP-1 activity, Str-AP1-CAT in HeLa cells; format: cell-based; conditions: 1,25-dihydroxyvitamin D3 alone, 10^−12 to 10^−7 M
Method: HeLa cells were transfected with 1 μg of Str-AP1-CAT using LIPOFECTAMINE according to the method described by Nagpal et al. in J. Biol. Chem. 270:923 (1995). Transfected cells were treated with AGN 193109 alone (10^−9 to 10^−7 M), 1,25-dihydroxyvitamin D3 alone (10^−12 to 10^−7 M) or 1,25-dihydroxyvitamin D3 (10^−12 to 10^−7 M) in the presence of 10^−8 M AGN 193109.

[3] = Example 4: retinoid-induced hypertriglyceridemia (serum triglycerides); format: in vivo, rats; conditions: group C: AGN 191659 3.7 mg/kg oral alone
Method: Male Fischer rats (6-7 weeks old, n=5) were treated by intragastric intubation with corn oil (vehicle), AGN 191659, AGN 193109 or a combination of AGN 191659 and AGN 193109. AGN 191659 and AGN 193109 were given as fine suspensions in corn oil.
Serum was separated from blood by low speed centrifugation. Total serum triglycerides (triglycerides plus glycerol) were measured with a standard spectrophotometric endpoint assay available commercially as a kit and adapted to a 96-well plate format. Serum triglyceride levels are expressed as the mean±SD. Means were compared statistically by one-way analysis of variance followed by Dunnett's test if significant differences were found. Differences were considered significant at P<0.05.

hairless mice = assay: Example 1: skin irritation by topical agonist, topical antagonist; format: in vivo
Method: More particularly skin irritation was measured on a semiquantitative scale by the daily subjective evaluation of skin flaking and abrasions. A single number, the topical irritation score, summarizes the skin irritation induced in an animal during the course of an experiment. The topical irritation score is calculated as follows. The topical irritation score is the algebraic sum of a composite flaking score and a composite abrasion score. The composite scores range from 0-9 and 0-8 for flaking and abrasions, respectively, and take into account the maximum severity, the time of onset, and the average severity of the flaking and abrasions observed.
The severity of flaking is scored on a 5-point scale and the severity of abrasions is scored on a 4-point scale, with higher scores reflecting greater severity. The maximum severity component of the composite scores would be the highest daily severity score assigned to a given animal during the course of observation.
For the time of onset component of the composite score, a score ranging from 0 to 4 is assigned as follows:
The average severity component of the composite score is the sum of the daily flaking or abrasion scores divided by the number of observation days.
To calculate the composite flaking and abrasion scores, the average severity and time of onset scores are summed and divided by 2. The result is added to the maximal severity score. The composite flaking and abrasion scores are then summed to give the overall topical irritation score. Each animal receives a topical irritation score, and the values are expressed as the mean±SD of the individual scores of a group of animals. Values are rounded to the nearest integer.
Female hairless mice [Crl:SKH1-hrBR] […] Treatments are applied to the dorsal skin in a total volume of 4 ml/kg (˜0.1 ml). Mice were observed daily and scored for flaking and abrasions up to and including 3 days after the last treatment, i.e., day 8.

Compound: C=C1/C(=C\C=C2/CCC[C@]3(C)[C@@H]([C@H](C)CCCC(C)(C)O)CC[C@@H]23)C[C@@H](O)C[C@@H]1O [1,25-dihydroxyvitamin D3, reference compound]
concentration required to produce a luciferase expression of approximately 2,000 rlu [1]: 10^−8 M | repression of TPA-stimulated activity [2]: repressed TPA-stimulated activity only in the 10^−8 and 10^−7 M concentration range

Compound: C/C(=C\c1ccc(C(=O)O)s1)c1cc2c(cc1C)C(C)(C)CCC2(C)C [AGN 191659, 5-[(E)-2-(5,6,7,8-tetrahydro-3,5,5,8,8-pentamethylnaphthalen-2-yl)propen-1-yl]-2-thiophencarboxylic acid, reference compound]
Serum Triglycerides [3]: 122.5 ± 27.6 mg/dL

Compound: CC1(C)CC=C(c2ccccc2)c2cc(C#Cc3ccc(C(=O)O)cc3)ccc21 [Compound 60a, 4-[(5,6-dihydro-5,5-dimethyl-8-phenyl-2-naphthalenyl)ethynyl]benzoic acid]
Topical Irritation Score (hairless mice; group C: AGN 192869 0.06 mg/kg/d + AGN 191183 0.025 mg/kg/d topical, molar ratio 2:1): 5 ± 2 | Topical Irritation Score (hairless mice; group D: AGN 192869 0.30 mg/kg/d + AGN 191183 0.025 mg/kg/d topical, molar ratio 10:1): 2 ± 1 | Topical Irritation Score (hairless mice; group E: AGN 192869 1.5 mg/kg/d + AGN 191183 0.025 mg/kg/d topical, molar ratio 50:1): 1 ± 0 | Topical Irritation Score (hairless mice; group F: AGN 192869 1.5 mg/kg/d topical alone): 0 ± 0

Continued, in another order:

Kd (RARγ): 30 nM
Compound: Cc1ccc(C2=CCSc3ccc(C#Cc4ccc(C(=O)O)cc4)cc32)cc1 [Compound 50, 4-[2-(6-(4-(4-methylphenyl)-(2H)-1-benzothiopyranyl))ethynyl]-benzoic acid]
RAR-γ-VP-16 constitutive activity (negative hormone activity) (RAR-γ-VP-16): dose dependent repression of RAR-γ-VP-16 constitutive activity

Kd (RARγ): 52 nM
Compound: CC1(C)CC=C(c2cccs2)c2cc(C#Cc3ccc(C(=O)O)cc3)ccc21 [Compound 34a, 4-[(5,6-dihydro-5,5-dimethyl-8-(2-thienyl)-2-naphthalenyl)ethynyl]benzoic acid]
RAR-γ-VP-16 constitutive activity (negative hormone activity) (RAR-γ-VP-16): did not repress RAR-γ-VP-16 activity
